# Read-outs that look alike come from different tables or passages of the source.
# Legend:
# cold allodynia in rats [1] = test: Cold allodynia in vivo assay (chronic constriction injury), acute studies; parameters: species or system rat; settings: cold allodynia, subcutaneous, acute; for ED50: Rattus norvegicus, sc; for potency (ED50) comparison of (R)-isomers: in words
# Description: (§1) This assay determines the effectiveness of compounds in relieving one of the symptoms of neuropathic pain produced by unilateral mononeuropathy, namely cold allodynia. Unilateral mononeuropathy was produced in rats using the Chronic Constriction Injury model performed essentially as described by Bennet and Xie, Pain, (1988) 33:87-107. Briefly, the rats were anesthetized with an intraperitoneal dose of pentobarbital sodium (65 mg/kg) with additional doses of anesthetic given as needed. The lateral aspect of each rat's hind limb was shaved and scrubbed with Novasan. Using aseptic technique, an incision was made on the lateral aspect of the hind limb at the mid-thigh level. The biceps femoris was bluntly dissected to expose the sciatic nerve. On the right hind limb of each rat, four loosely tied ligatures were made around the sciatic nerve approximately 1-2 millimeters apart. On the left side of each rat, an identical dissection was performed except that the sciatic nerve was not ligated. The muscle was closed with a continuous suture pattern, and the skin was closed with wound clips. Each rat was placed individually into a plexiglass chamber with a metal plate 6 cm from the bottom. This chamber was filled with ice water to a depth of 2.5 cm above the metal plate, with the temperature of the bath maintained at 0° C. throughout the experiment. A timer was started, and the rat's response latency was measured to the nearest tenth of a second. A "response" was defined as a rapid withdrawal of the right ligated hindpaw completely out of the water while the animal was stationary and not pivoting. An exaggerated limp while the animal was walking was not scored as a response. Maximum immersion time was 20 seconds with a 20 minute interval between trials. The screening criteria were 1) the average of two trials was less than or equal to 13 seconds, and 2) there was consistency across the two trial scores. Animals were screened for hypersensitivity to cold on post-surgery days 4 through 10, and selected for inclusion in dose-response studies based on the criteria described above. The pre-dose screening values were used as the animal's baseline cold allodynia scores. For acute studies, the animals received either subcutaneous or oral injections and were tested for cold allodynia at 1, 3, and sometimes 5 hours post-dose. The selection of doses was similar to that of Example 12C.
# [2] = Adverse effects / gross behavior on dosing; type: in vivo, rat; settings: for doses with adverse side effects / behavioral problems / adverse side effects observed: cold allodynia acute study; for adverse side effects observed: doses higher than 60 mg/kg
# Description: The doses for the acute and chronic studies were selected on the basis of prior assessment of the acute effects on the test compounds on the gross behavior in normal rats. Briefly, the rats were weighed and grouped into cages, dosed with the test compound, and observed continuously for changes in behavior. […] Pinna and corneal reflexes were tested by using a piece of natural hair from a brush that is attached to a glass rod. The righting reflexes were tested by placing the rat flat on its back, and recording the time it takes for the animal to right itself onto all four legs. The posture and gait were assessed by placing the rat on the floor.
# The selection of doses was similar to that of Example 12C.
# [3] = test system: mechanical allodynia in rats; test: Mechanical allodynia in vivo assay (spinal nerve ligation); parameters: species or system rat; settings: for ED50: Rattus norvegicus, sc; for analgesia against mechanical allodynia: oral administration
# Description: This assay determines the effectiveness of compounds in relieving one of the symptoms of neuropathic pain produced by spinal nerve ligation, namely mechanical allodynia. The surgical procedure was performed essentially as described by Kim and Chung, Pain, (1992) 50:355-363. Briefly, the rats were anesthetized with an intraperitoneal dose of pentobarbital sodium (65 mg/kg) with additional doses of anesthetic given as needed. Each animal was then placed in a prone position, a 3 cm lateral incision was made, and the left paraspinal muscles separated from the spinous process at the L4 -S2 level. The L6 transverse process was then removed in order to visually identify the L4 -L6 spinal nerves. The L5 and L6 spinal nerves were then individually isolated and tightly ligated with silk thread. The wound was then closed in layers by silk sutures. Seven to 28 days post-surgery, a calibrated series of eight von Frey filaments were used to assess mechanical allodynia. Animals were housed individually in plexiglass cages with a wire mesh floor. Filaments of increasing stiffness were applied perpendicular to the midplantar surface in the sciatic nerve distribution areas of the left hindpaw and were slowly depressed (4-6 seconds) until bending occurred. The filament application order and number of trials were determined by the up-down method of Dixon (Chaplan, et al., J. Neurosci. Methods, (1994) 53:55-63). Flinching and licking of the paw and paw withdrawal on the ligated side were all considered positive responses. The 50% paw withdrawal threshold (g) was then calculated and compared to control. The doses for the acute and chronic studies were selected on the basis of prior assessment of the acute effects on the test compounds on the gross behavior in normal rats. Briefly, the rats were weighed and grouped into cages, dosed with the test compound, and observed continuously for changes in behavior. […] Pinna and corneal reflexes were tested by using a piece of natural hair from a brush that is attached to a glass rod. The righting reflexes were tested by placing the rat flat on its back, and recording the time it takes for the animal to right itself onto all four legs. The posture and gait were assessed by placing the rat on the floor.
# [4] = test system: voltage-gated sodium channels ([3H]BTX binding, rat cortex); test: [3H]BTX binding assay, rat cortex membranes; settings: rat brain cortex membranes
# Description: The following assays characterize the interaction of the compounds of Formula I with ligand binding sites on voltage-gated sodium channels.
# Frozen tissues were obtained from Pel-Freez Biologicals (Rogers, AR). Tissues were homogenized in 10 volumes of a Tris-sucrose buffer (10 mM Tris-HCl, 250 mM sucrose, pH 7.4 at 4° C.) using 10 strokes with a glass-glass, hand-held homogenizer. The homogenates were filtered through nylon mesh and then centrifuged at 1,000×g for 15 minutes. The pellets were resuspended in a Hepes buffer (50 mM Hepes, 130 mM choline chloride, 5 mM glucose, 5.4 mM KCl, pH 7.4 at 4° C.). The resuspended pellets were centrifuged at 1,000×g for 15 minutes, resuspended in a Hepes buffer (50 mM Hepes, 130 mM choline chloride, 5 mM glucose, 5.4 mM KCl, pH 7.4 at 25° C.) and, frozen at -70° C. until used in binding assays.
# Nonspecific binding was defined in the presence of 1 mM veratridine. Unless otherwise specified, PbTx (0.1 μM) and LqTx (50 μg/ml) were included in the assays. Membranes were incubated for 60 minutes at 25° C. and then filtered using GF/B glass fiber filters that had been pretreated with 0.3% PEI. Filters were rinsed with 3×1 ml of ice cold 50 mM Tris-HCl (pH 7.4 at 4° C.) and the bound radioactivity was determined by scintillation counting (Packard Top-count).
# neuropathic pain models = test: Neuropathic pain models / standard assays (summary statements); type: in vivo; settings: summary statement, (S)- vs (R)-enantiomer
# cold allodynia in rats [5] = test: Cold allodynia in vivo assay (chronic constriction injury), chronic studies; parameters: species or system rat; settings: oral, chronic; (R)-enantiomer 10 and 20 mg/kg, sub-threshold
# Description: as §1, with “chronic” for “acute”, “animals received subcutaneous or oral injections twice daily for 4 days and once on day 5. The animals were tested for allodynia on day 1 at 1, 3 and 5 hours following the 8 am dose, and at 5 hours following the 8 am dose on days 3 and 5. Two days later, the animals were tested for cold allodynia to assess whether there was a wash-out of the drug being tested. Following this screening for cold allodynia, the animals in two of the three chronic studies” for “animals”, “of the drug” for “and were tested for cold allodynia”, “a dose previously shown” for “1, 3, and sometimes 5 hours post-dose. The selection of doses was similar”, “produce significant anti-allodynic effects acutely. […]” for “that of Example 12C.”
# [6] = subcutaneous, mechanical allodynia study
# [7] = mechanical allodynia, subcutaneous
SMILES,"ED50 (cold allodynia in rats [1]; 1 hr, read-out: ED50 1 hr) [mg/kg]","ED50 (cold allodynia in rats [1]; 3 hr, read-out: ED50 3 hr) [mg/kg]",Emax 1 hr (cold allodynia in rats [1]; 1 hr) [%],Emax 3 hr (cold allodynia in rats [1]; 3 hr) [%],potency (ED50) comparison of (R)-isomers (cold allodynia in rats [1]),doses with adverse side effects / behavioral problems ([2]; subcutaneous),adverse side effects observed ([2]; subcutaneous),"ED50 [3, 7] [mg/kg]",analgesia against mechanical allodynia [3],"EDmax [3, 7] [%]","maximal analgesic activity (Emax) [3, 7] [%]",further results
"CN[C@H](C)COc1c(C)cccc1C [Formula III (R)-, [2-(2,6-dimethylphenoxy)-1-methylethyl]-methylamine, reference compound]",26.1,31.4,76,74,comparable potency,,,,,,,
"CCCN[C@H](C)COc1c(C)cccc1C [Formula IV (R)-, [2-(2,6-Dimethylphenoxy)-1-methylethyl]-propylamine, reference compound]",28.4,29.9,74,74,comparable potency,higher than 60 mg/kg,splayed limbs and abnormal righting reflexes,,,,,
"CCCNC(C)COc1c(C)cccc1C (racemic) [Formula IV racemate, [2-(2,6-Dimethylphenoxy)-1-methylethyl]-propylamine, reference compound]",,,,,,,,> 30,,,,"adverse events [2, 6]: adverse events; dose at which adverse events occur [2, 6]: 60 mg/kg; adverse events ([2]; subcutaneous, mechanical allodynia study, listed as Compound IV): convulsions and severe ataxia; potency (ED50) comparison ([3]; mechanical allodynia, subcutaneous, in words): less potent than compound III"
"CCN[C@@H](C)COc1c(C)cccc1C [Formula I (S)-, (S)-[2-(2,6-dimethylphenoxy)-1-methylethyl]-ethylamine]",12.8,10,100,58,,higher than 60 mg/kg,convulsions and immobility,,did not produce analgesia,,,"potency of (R)- versus (S)-enantiomer in inhibiting [3H]BTX binding [4]: no difference in the potencies; doses with adverse side effects ([2]; oral administration, mechanical allodynia study): greater than 60 mg/kg; deleterious side effects (neuropathic pain models): deleterious side effects are largely confined to the (S)-enantiomer"
"CNC(C)COc1c(C)cccc1C (racemic) [Formula III racemate, [2-(2,6-dimethylphenoxy)-1-methylethyl]-methylamine]",,,,,,,,31.3,,67,67,
"Cc1cccc(C)c1OCC(C)N (racemic) [Formula II racemate, 2-(2,6-Dimethylphenoxy)-1-methyl-ethylamine, reference compound]",29.8,33.6,73,80,,,,,did not produce analgesia,29,29,anti-allodynic effect after chronic oral dosing (cold allodynia in rats [5]): no anti-allodynic effect

# Reference: US5688830A, “Treatment of neuropathic pain” (Syntex (U.S.A.) Inc., priority 1997, dated 1997)
